One block for each compound: values may come before it.
Tests used:
[1] = CD-1 mouse plasma stability; type: in vitro ADME
Procedure: (§1) Method: Assay was carried out in 96-well microtiter plates. Compounds were incubated in replicates (n=2) for 0, 5, 15, 30, and 45 minutes at 37° C. Reaction mixtures (20 μL) contained a final concentration of 3 μM test compound in fresh CD-1 mouse plasma. Eucatropine included as positive control to verify assay performance. Linear regression of semi-log plot of % remaining of compounds versus time used to determine the half-life t1/2 values.

Rat plasma stability = type: in vitro ADME
Procedure: as §1, with “Sprague Dawley rat” for “CD-1 mouse”, “is a” for “included as”

[2] = Liver microsomal stability, mouse; type: in vitro ADME; details: mouse liver microsomes
Solubility / formulation = type: physicochemical
[3] = Monkey liver S9 stability; type: in vitro ADME; details: for microsomal CLint: monkey
[4] = Gemcitabine normal tissue and plasma PK in CD-1 mice (study e); type: in vivo; details: male CD-1 mice, iv gemcitabine, FIG. 6
Procedure: Objectives: to determine the normal tissue pharmacokinetics, distribution, and stability of gemcitabine in select excretory organs and plasma following a single intravenous infusion administration of gemcitabine at 10.5 mg/kg in male CD-1 mice.
PK measurements: determine PK parameters C0, CL, Vdss, Cmax, tmax, t1/2, AUC(0-t), AUC(0-inf), MRT(0-t), MRT(0-inf) for gemcitabine

Slope Mean ± SE ([1]; 3 μM, 37° C., in min-1 (unit assumed)): −0.000906 ± 0.000706
half-life at 3 μM ([1]; fresh CD-1 mouse plasma, 3 μM, 37° C., read-out: t1/2 Mean ± SE): 12.8 ± 9.94 h
half-life at 3 μM ([1]; read-out: t1/2 (converted)): ~13 h
Slope Mean ± SE (Rat plasma stability; Sprague Dawley rat plasma, 3 μM, 37° C.): −0.009305 ± 0.001423
half-life at 3 μM (Rat plasma stability; Sprague Dawley rat plasma, read-out: t1/2 (converted)): ~1.2 h
half-life at 3 μM (Rat plasma stability; fresh Sprague Dawley rat plasma, 3 μM, 37° C., read-out: t1/2 Mean ± SE): 1.24 ± 0.19 h
half-life [2]: 1.35 h
microsomal CLint [2]: 17.1 µL/min/mg
Compound Remaining (% of 0 min) 0 min ([2]; 0 min): 100 % of 0 min
Compound Remaining (% of 0 min) 5 min ([2]; 5 min): 102 % of 0 min
Compound Remaining (% of 0 min) 15 min ([2]; 15 min): 78.4 % of 0 min
Compound Remaining (% of 0 min) 30 min ([2]; 30 min): 73.6 % of 0 min
Compound Remaining (% of 0 min) 45 min ([2]; 45 min): 70.7 % of 0 min
Compound Remaining (% of 0 min) control ([2]; control): 93.2 % of 0 min
solubility (Solubility / formulation): low to moderate solubility
formulated to (Solubility / formulation; formulation): 50 mg/mL
Slope Mean ± SE ([3]; monkey liver S9): −0.03881 ± 0.002089
half-life ([3]; monkey liver S9, read-out: t1/2 Mean ± SE): 0.298 ± 0.0167 h
microsomal CLint ([3]; liver S9, monkey liver S9, summary, read-out: S9 intrinsic clearance Clint): < 2.5 µL/min/mg
microsomal CLint ([3]; liver S9, monkey liver S9, read-out: CLint Mean ± SE): 15.5 ± 0.836 µL/min/mg
microsomal CLint ([3]; liver S9, monkey liver S9 experiment, read-out: intrinsic clearance value): 15.5 µL/min/mg
SMILES: COc1cc(OC)c2oc(COC(=O)Nc3ccn([C@@H]4O[C@H](CO)[C@@H](O)C4(F)F)c(=O)n3)cc2c1 [Int 1-4, (5,7-di(methoxy)benzofuran-2-yl)methyl (1-((2R,4R,5R)-3,3-difluoro-4-hydroxy-5-(hydroxymethyl)tetrahydrofuran-2-yl)-2-oxo-1,2-dihydropyrimidin-4-yl)carbamate]

SMILES: Nc1ccn([C@@H]2O[C@H](CO)[C@@H](O)C2(F)F)c(=O)n1 [Gemcitabine, gemcitabine]
fate in plasma and normal tissue [4]: deaminated to dFdU

Reference: US11760773B2, “Small molecule drug conjugates of gemcitabine monophosphate” (MaveriX Oncology, Inc., priority 2018, dated 2023)
